Experimental data published in patent US6613767B1, “Stable aqueous folinate solution” (Pharmachemie B.V., priority 1994, dated 2003).

Assays:
[1] = normal refrigerator temperature of approximately 4° C.; cited from earlier work
[2] = Accelerated shelf life tests of sodium folinate injection, 40° C./75% RH; type: physicochemical; conditions: during autoclaving (121° C. for 7 min)
Method: Tests were carried out with sodium folinate bulk solutions of 200 ml containing 25, 100, 250 and 400 mg sodium folinate/ml respectively as indicated in Table 1. Each bulk solution was prepared with a 2% excess of sodium folinate, because during autoclaving ca. 2% folinic acid decomposes. Subsquently, 2.15 ml of each formulated solution was used to fill 2R bottles to the exclusion of air. Afterwards, the bottles were then autoclaved at 121° C. for 7 min. The bottles were thereafter stored at 40° C./75% RH (RH=relative humidity). The following analyses were carried out initially at the beginning of the test and after two weeks:
oxygen percentage in the headspace
content of folinic acid and decomposition products.
The results are summarized in the Tables 2-5 for the accelerated shelf life tests of the sodium folinate injection preparation having a content of sodium folinate of 25 mg/ml, 100 mg/ml, 250 mg/ml and 400 mg/ml, respectively. The bottles were stored at 40° C./[…] during the two week time period for the shelf life tests.

## Nc1nc(=O)c2c([nH]1)NCC(CNc1ccc(C(=O)N[C@@H](CCC(=O)[O-])C(=O)[O-])cc1)N2C=O.[Ca+2] (some centres unmarked) [Calcium folinate, calcium folinate]
[1]
  Concentration at which crystallization takes place: ≥ 15000 µg/mL

## Nc1nc(=O)c2c([nH]1)NC[C@@H](CNc1ccc(C(=O)N[C@@H](CCC(=O)O)C(=O)O)cc1)N2C=O [folinic acid]
[2]
  Folinic acid decomposed during autoclaving: ca. 2%
